# Test results: PubChem BioAssay AID1963834 (Molecular Pharmacology Branch, DTP, NCI, 2024)
# Tested on: 873145-292-R-J1-PDC complex spheroid viability
# Test: Anticancer human tumor 873145-292-R-J1-PDC patient-derived renal clear cell carcinoma cell line growth inhibition [POLQ]
# Conditions: for IC50: curve of first compound; for viability, T/C: stronger effect = lower value
# Description: Multicellular complex tumor spheroid response to Polymerase (POL) inhibitors (novobiocin, ART-558, RP6685) in combination with a variety of drugs and investigational agents in selected tumor cell lines
# The POL inhibitors (novobiocin, ART-558, and RP6685) were evaluated both individually and in combination with standard of care and investigational anticancer small molecules within a complex spheroid model of solid tumors. . Complex spheroids include a stromal component modeled by human endothelial cells (HUVEC) and fibroblasts modeled by human mesenchymal stem cells (MSCs). The concentration ranges selected for each drug and investigational agent were based upon clinically achievable concentrations if the clinical Cmax of the agent was known.
# Compounds. The drugs and investigational agents: novobiocin (NSC847541), ART-558 (NSC835418), RP-6685 (NSC848927), peposertib (NSC802822), ceralasertib (NSC780249), elimusertib (NSC800525), camonsertib (NSC841442), AZD-1390 (NSC803789), olaparib (NSC753686), talazoparib (NSC767125), rucaparib (NSC756644), sotorasib (NSC818433), MRTX-1133 (NSC836407), SN-38 (NSC673596), topotecan (NSC609699), epotoside (NSC141540), doxorubicin (NSC123127), gemcitabine (NSC613327), 5-fluorouracil (NSC19893), paclitaxel (NSC125973), vemurafenib (NSC761431), MSA-2 (NSC828583), SN-011 (NSC837082), adavosertib (NSC754352), prexasertib (NSC758257), carboplatin (NSC241240) and oxaliplatin (NSC266046), were obtained from the National Cancer Institute (NCI) Developmental Therapeutics Program Chemical Repository (21). The FDA-approved anticancer drug set is available from the Developmental Therapeutics Program at https://dtp.cancer.gov/organization/dscb/obtaining/. […] The stock solutions were prepared in dimethyl sulfoxide (DMSO, Sigma-Aldrich, St. Louis, MO, cat. D2650), except for the platinum compounds which were prepared in saline (Quality Biological, Gaithersburg, MD, cat. 114-055-101), at 800-fold the tested concentration and stored at -70 degrees C prior to their use. All drugs and investigational agents were tested over a range starting from a high concentration at or near the clinical Cmax and decreasing in half-log increments. If the clinical Cmax for an agent had not been determined, the highest concentration tested was 10 microM, except for SN-38, which was tested at a high concentration of 1 microM.
# Cell Culture. All cells were maintained in an incubator at 37 degrees C and 5% CO2 with 95% humidity. The PDC lines were cultured according to standard operating procedures established by the NCI PDMR (https://pdmr.cancer.gov). Table 3 of the manuscript, lists the cell lines along with the number of the three cell types plated to form the mct-spheroids and media for tumor cell growth. After thawing, all PDC lines, except 997537-175-T-J1-PDC and 415267-285-R-J2-PDC, were cultured in Matrigel-coated flasks prepared with a working solution of 1X Ham's F-12 nutrient mix, without supplementation (Thermo Fisher Scientific, cat. 11765054), 100 U/mL penicillin-streptomycin (Thermo Fisher Scientific, cat. 15140122), and 2.5% Matrigel (Corning Inc., Corning, NY, cat. 354248) for the first three passages. The two PDC lines 997537-175-T-J1-PDC and 415267-285-R-J2-PDC were cultured on uncoated flasks. The 857933-349-R-J2-PDC line was cultured in 6C/Colon 1B media containing advanced DMEM/F-12 (Thermo Fisher Scientific, cat. 12634028), 10 mM HEPES (Thermo Fisher Scientific, cat. 15630080), 1X GlutaMAX supplement (Thermo Fisher Scientific, cat. 35050061), 0.1 mg/mL primocin (InvivoGen, San Diego, CA, cat. ant-pm-2), 10% defined fetal bovine serum, heat inactivated (HyClone Laboratories Inc., Logan, UT, cat. SH30070.03HI), 50% L-WRN conditioned media (ATCC, cat. CRL-3276), 1.25 mM N-Acetyl-L-cysteine (Sigma-Aldrich, cat. A9165), 10 mM nicotinamide (Sigma-Aldrich, cat. N0636), 1X B-27 supplement (Thermo Fisher Scientific, cat. 17504044), 1X N-2 supplement (Thermo Fisher Scientific, cat. […]
# [1] = second compound 0.0316 µM, first compound 0.0316 µM
# [2] = second compound 0.0316 µM, first compound 0.1 µM
# [3] = second compound 0.1 µM, first compound 0.0316 µM
# [4] = second compound 0.1 µM, first compound 0.1 µM
# [5] = second compound 0.316 µM, first compound 0.0316 µM
# [6] = second compound 0.316 µM, first compound 0.1 µM
# [7] = second compound 1 µM, first compound 0.0316 µM
# [8] = second compound 1 µM, first compound 0.1 µM
# [9] = second compound 3.16 µM, first compound 0.0316 µM
# [10] = second compound 3.16 µM, first compound 0.1 µM
# [11] = second compound 10 µM, first compound 0.0316 µM
# [12] = second compound 10 µM, first compound 0.1 µM
# 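Further: spheroids exposed to compounds for 7 days before viability readout.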
# 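Wherever viability, T/C is given: luminescence signal used as surrogate for viable cell content; 100% = DMSO vehicle control viability.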
structure (smiles),measurement,setting,value
CC[C@@]1(O)C(=O)OCc2c1cc1n(c2=O)Cc2cc3c(CN(C)C)c(O)ccc3nc2-1 + COC1C(OC(N)=O)C(O)C(Oc2ccc3c(O)c(NC(=O)c4ccc(O)c(CC=C(C)C)c4)c(=O)oc3c2C)OC1(C)C,IC50,second compound 0.0316 µM,94.4 nM
same,IC50,second compound 0.1 µM,> 100 nM
same,IC50,second compound 0.316 µM,> 100 nM
same,IC50,second compound 1 µM,91.9 nM
same,IC50,second compound 3.16 µM,95.5 nM
same,IC50,second compound 10 µM,> 100 nM
same,"viability, T/C","second compound 0.0316 µM, first compound 0.000316 µM",100%
same,"viability, T/C","second compound 0.0316 µM, first compound 0.001 µM",98.3%
same,"viability, T/C","second compound 0.0316 µM, first compound 0.00316 µM",96.2%
same,"viability, T/C","second compound 0.0316 µM, first compound 0.01 µM",90%
same,"viability, T/C",[1],91.5%
same,"viability, T/C",[2],47.6%
same,"viability, T/C","second compound 0.1 µM, first compound 0.000316 µM",112%
same,"viability, T/C","second compound 0.1 µM, first compound 0.001 µM",97.6%
same,"viability, T/C","second compound 0.1 µM, first compound 0.00316 µM",90.8%
same,"viability, T/C","second compound 0.1 µM, first compound 0.01 µM",96.3%
same,"viability, T/C",[3],80.6%
same,"viability, T/C",[4],48.9%
same,"viability, T/C","second compound 0.316 µM, first compound 0.000316 µM",104%
same,"viability, T/C","second compound 0.316 µM, first compound 0.001 µM",89.3%
same,"viability, T/C","second compound 0.316 µM, first compound 0.00316 µM",92.9%
same,"viability, T/C","second compound 0.316 µM, first compound 0.01 µM",110%
same,"viability, T/C",[5],81.5%
same,"viability, T/C",[6],53.9%
same,"viability, T/C","second compound 1 µM, first compound 0.000316 µM",98.4%
same,"viability, T/C","second compound 1 µM, first compound 0.001 µM",95.3%
same,"viability, T/C","second compound 1 µM, first compound 0.00316 µM",92.8%
same,"viability, T/C","second compound 1 µM, first compound 0.01 µM",91%
same,"viability, T/C",[7],80.3%
same,"viability, T/C",[8],47.3%
same,"viability, T/C","second compound 3.16 µM, first compound 0.000316 µM",101%
same,"viability, T/C","second compound 3.16 µM, first compound 0.001 µM",97.8%
same,"viability, T/C","second compound 3.16 µM, first compound 0.00316 µM",92.7%
same,"viability, T/C","second compound 3.16 µM, first compound 0.01 µM",90.9%
same,"viability, T/C",[9],75.1%
same,"viability, T/C",[10],48.6%
same,"viability, T/C","second compound 10 µM, first compound 0.000316 µM",104%
same,"viability, T/C","second compound 10 µM, first compound 0.001 µM",100%
same,"viability, T/C","second compound 10 µM, first compound 0.00316 µM",91.7%
same,"viability, T/C","second compound 10 µM, first compound 0.01 µM",98.6%
same,"viability, T/C",[11],71.8%
same,"viability, T/C",[12],50.7%
COc1cc(C2c3cc4c(cc3C(OC3OC5COC(C)OC5C(O)C3O)C3COC(=O)C23)OCO4)cc(OC)c1O (centres undefined) + COC1C(OC(N)=O)C(O)C(Oc2ccc3c(O)c(NC(=O)c4ccc(O)c(CC=C(C)C)c4)c(=O)oc3c2C)OC1(C)C,IC50,second compound 0.0316 µM,> 10000 nM
same,IC50,second compound 0.1 µM,> 10000 nM
same,IC50,second compound 0.316 µM,> 10000 nM
same,IC50,second compound 1 µM,> 10000 nM
same,IC50,second compound 3.16 µM,> 10000 nM
same,IC50,second compound 10 µM,> 10000 nM
same,"viability, T/C",[1],104%
same,"viability, T/C",[2],108%
same,"viability, T/C","second compound 0.0316 µM, first compound 0.316 µM",103%
same,"viability, T/C","second compound 0.0316 µM, first compound 1 µM",99.1%
same,"viability, T/C","second compound 0.0316 µM, first compound 3.16 µM",80.3%
same,"viability, T/C","second compound 0.0316 µM, first compound 10 µM",57.2%
same,"viability, T/C",[3],112%
same,"viability, T/C",[4],101%
same,"viability, T/C","second compound 0.1 µM, first compound 0.316 µM",101%
same,"viability, T/C","second compound 0.1 µM, first compound 1 µM",96.2%
same,"viability, T/C","second compound 0.1 µM, first compound 3.16 µM",72.5%
same,"viability, T/C","second compound 0.1 µM, first compound 10 µM",53.8%
same,"viability, T/C",[5],114%
same,"viability, T/C",[6],99.4%
same,"viability, T/C","second compound 0.316 µM, first compound 0.316 µM",100%
same,"viability, T/C","second compound 0.316 µM, first compound 1 µM",87.4%
same,"viability, T/C","second compound 0.316 µM, first compound 3.16 µM",72.9%
same,"viability, T/C","second compound 0.316 µM, first compound 10 µM",54.3%
same,"viability, T/C",[7],96.2%
same,"viability, T/C",[8],95.5%
same,"viability, T/C","second compound 1 µM, first compound 0.316 µM",101%
same,"viability, T/C","second compound 1 µM, first compound 1 µM",86.2%
same,"viability, T/C","second compound 1 µM, first compound 3.16 µM",79%
same,"viability, T/C","second compound 1 µM, first compound 10 µM",53.4%
same,"viability, T/C",[9],107%
same,"viability, T/C",[10],106%
same,"viability, T/C","second compound 3.16 µM, first compound 0.316 µM",104%
same,"viability, T/C","second compound 3.16 µM, first compound 1 µM",86.6%
same,"viability, T/C","second compound 3.16 µM, first compound 3.16 µM",70.9%
same,"viability, T/C","second compound 3.16 µM, first compound 10 µM",57.7%
same,"viability, T/C",[11],103%
same,"viability, T/C",[12],103%
same,"viability, T/C","second compound 10 µM, first compound 0.316 µM",95.5%
same,"viability, T/C","second compound 10 µM, first compound 1 µM",94.5%
same,"viability, T/C","second compound 10 µM, first compound 3.16 µM",76.7%
same,"viability, T/C","second compound 10 µM, first compound 10 µM",67.2%
